ChEMBL document CHEMBL4342405, “Clinical candidates modulating protein-protein interactions: The fragment-based experience” (Eur J Med Chem, 2019)
Values belong to the molecule of their own block, whether it stands above or below them.

How the values were obtained:
Bcl-2-like protein 1 [1] = target: T1, Bcl-2-like protein 1 (Homo sapiens, UniProt Q07817); experiment: Inhibition of BCL-XL (unknown origin) incubated for 15 mins by fluorescence polarization assay
Bcl-2-like protein 1 [2] = target: T1, Bcl-2-like protein 1; experiment: Binding affinity to BCL-XL (unknown origin) by 15N HSQC NMR analysis
[3] = Half life in monkey; assay type: ADME, Macaca mulatta; settings: rhesus monkey, in vivo
[4] = Oral bioavailability in monkey; assay type: ADME, organism-based, Macaca mulatta; settings: rhesus monkey, in vivo
[5] = Half life in rat; assay type: ADME; settings: in vivo
[6] = Oral bioavailability in rat; assay type: ADME, organism-based; settings: in vivo
[7] = Half life in mouse; assay type: ADME, organism-based; settings: in vivo
[8] = Oral bioavailability in mouse; assay type: ADME, organism-based; settings: in vivo
[9] = Half life in dog; assay type: ADME, Canis lupus familiaris; settings: in vivo
[10] = Oral bioavailability in dog; assay type: ADME, organism-based, Canis lupus familiaris; settings: in vivo
[11] = Half life in human; assay type: ADME
Bcl-2-like protein 2 = target: T2, Bcl-2-like protein 2 (Homo sapiens, UniProt Q92843); experiment: Inhibition of BCL-W (unknown origin) by fluorescence polarization assay
T2 sequence (Q92843 whole entry): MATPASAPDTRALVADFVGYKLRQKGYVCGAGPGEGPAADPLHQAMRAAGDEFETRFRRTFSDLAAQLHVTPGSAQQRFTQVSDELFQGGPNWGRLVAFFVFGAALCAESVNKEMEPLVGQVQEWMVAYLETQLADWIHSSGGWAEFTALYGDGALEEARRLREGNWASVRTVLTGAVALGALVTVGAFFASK

[12] = Toxicity in mouse xenografted with human haematological tumor at 12.5 mg/kg, po; assay type: organism-based

T1 sequence (Q07817 whole entry): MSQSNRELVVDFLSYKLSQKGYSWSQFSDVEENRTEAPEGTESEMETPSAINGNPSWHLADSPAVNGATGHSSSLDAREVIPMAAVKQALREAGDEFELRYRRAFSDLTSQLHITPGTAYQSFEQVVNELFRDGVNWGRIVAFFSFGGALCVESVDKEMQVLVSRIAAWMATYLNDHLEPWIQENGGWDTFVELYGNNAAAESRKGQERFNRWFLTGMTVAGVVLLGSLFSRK

SMILES: O=C(O)c1ccc(-c2ccc(F)cc2)cc1/C=C/c1cccc(-c2ccccc2)c1
- Ki (Bcl-2-like protein 1 [1]): 1.4 µM

SMILES: Oc1ccc(-c2ccccc2)cc1
- Kd (Bcl-2-like protein 1 [2]): 6000 µM

SMILES: CC1(C)CCC(CN2CCN(c3ccc(C(=O)NS(=O)(=O)c4ccc(NCC5CCOCC5)c([N+](=O)[O-])c4)c(Oc4cnc5[nH]ccc5c4)c3)CC2)=C(c2ccc(Cl)cc2)C1 [VENETOCLAX]
- EC50 [12]: 5.5 µM

Second part, led by results:

- half-life [3]: 4 to 6.4 h
- bioavailability [4]: 20%
- half-life [5]: 4 to 6.4 h
- bioavailability [6]: 20%
- half-life [7]: 4 to 6.4 h
- bioavailability [8]: 20%
- half-life [9]: 4 to 6.4 h
- bioavailability [10]: 20%
SMILES: CN(C)CC[C@H](CSc1ccccc1)Nc1ccc(S(=O)(=O)NC(=O)c2ccc(N3CCN(Cc4ccccc4-c4ccc(Cl)cc4)CC3)cc2)cc1[N+](=O)[O-] [ABT 737]

- half-life [11]: 25 h
SMILES: CCS(=O)(=O)Nc1ccc(Oc2ccc(F)cc2F)c(-c2cn(C)c(=O)c3[nH]ccc23)c1 [MIVEBRESIB]

- Ki (Bcl-2-like protein 2): 0.245 µM
SMILES: CC1(C)CCC(c2ccc(Cl)cc2)=C(CN2CCN(c3ccc(C(=O)NS(=O)(=O)c4ccc(N[C@H](CCN5CCOCC5)CSc5ccccc5)c(S(=O)(=O)C(F)(F)F)c4)cc3)CC2)C1 [NAVITOCLAX]
- EC50 [12]: 0.083 µM
